# According to patent US9539298B2, “Lissencephaly therapeutic agent” (OSAKA CITY UNIVERSITY, priority 2010, dated 2017):
# Non-standard residues stand in square brackets, D forms with d. Residues, ends and D or L forms follow the SMILES beside them. Nle = CCCC[CH](N)C(=O)O
# Experiments:
# [1] = system: cells with LIS1 gene heterozygous mutation (Lis1+/−); conditions: Lis1+/− cells treated with ALLN, NPL 1; cited from earlier work
# [2] = system: nerve cells from cerebellums of FVB mice; assay: Analysis of toxicity of calpain inhibitors on cultured cerebellar nerve cells; format: cell-based, mouse; conditions: 16 hours, FIG. 24
# Protocol: The cerebellums were removed from 4- to 5-day-old FVB mice (15 mice). In a Ca^2+-free Hank's Balanced Salt Solution (CF-HBSS; Ca^2+, Mg^2+-free Hank's Balanced Salt Solution (CMF-HBBS, Sigma) containing 5 mM magnesium chloride (MgCl2, Wako) and 4 mg/mL glucose (Wako)), the meninges were removed and cut into pieces. After the cerebellum fragments were washed with CF-HBSS, the fragments were allowed to stand for 20 minutes at 37° C. in CF-HBSS containing 0.025% trypsin (Invitrogen) and 6.25 μg/mL deoxyribonuclease (DNase, Sigma), and then centrifuged. The resulting tissues were washed with 10% HS/BME (DNase Medium; obtained by adding 5 mM MgCl2 and 25 μg/mL DNase to Basal Medium Eagle (BME, Invitrogen) containing 10% Horse Serum (HS, Invitrogen)) and centrifuged. DNase medium was added to the cells, and the cells were transferred to a 24-well plate (Nunc). The cells were kept still for 30 minutes at 37′C under an atmospheric environment of 5% CO2, thereby suspending the cells. The cell suspension was isolated, and then washed with 10% HS/BME. The suspension was transferred again to a 24-well plate to be cultured for 16 hours at 37° C. under an atmospheric environment of 5% CO2. The cells were collected to BME containing 1% Bovine Serum Albumin (BSA, Sigma) and 0.5% N2 supplement (Invitrogen), and the cell suspension was seeded on a 35 mm glass base dish (Iwaki) coated beforehand with poly-L-lysine (Sigma) and laminin (Sigma) in an amount of […]. The cells were cultured for 8 hours at 37° C. under an atmospheric environment of 5% CO2. The cultured nerve cells were used as test nerve cells.
# A culture solution (10% HS/BME) containing SNJ-1945, E64d, or ALLN was prepared in the following manner. SNJ-1945 dissolved in dimethyl sulfoxide (Sigma, D-5879) was mixed with a culture solution so that the final concentration became 200 μM, and was kept still for an hour at 37° C., thereby completely dissolving SNJ-1945 in the culture medium. ALLN and E64d were also dissolved in culture media in the same manner, except that ALLN and E64d were added to the culture media to final concentrations of 50 μM and 100 μM, respectively. The culture media in which the components were dissolved were added to the test nerve cells prepared above in an amount of 2 ml/well, and the cells were cultured for 16 hours. As a control, the same culture was conducted using a culture medium containing the same amount of dimethyl sulfoxide (Sigma, D-5879). After culture, the cells were observed using an inverted microscope (TCS FP5S, Leica). A 20× objective lens was used. Images were taken using dedicated software (LAS AF, Leica) under the condition of 512×512 pixels.
# [3] = biological target: m-calpain (derived from porcine kidney) (Sus scrofa, UniProt I3LQD3); assay: Measurement of inhibitory activity against m-calpain; format: biochemical; conditions: casein substrate, 30° C., 60 minutes; read-out: enzyme inhibitory activities (μM) m-calpain
# m-calpain (derived from porcine kidney), sequence (I3LQD3 entry or part of it): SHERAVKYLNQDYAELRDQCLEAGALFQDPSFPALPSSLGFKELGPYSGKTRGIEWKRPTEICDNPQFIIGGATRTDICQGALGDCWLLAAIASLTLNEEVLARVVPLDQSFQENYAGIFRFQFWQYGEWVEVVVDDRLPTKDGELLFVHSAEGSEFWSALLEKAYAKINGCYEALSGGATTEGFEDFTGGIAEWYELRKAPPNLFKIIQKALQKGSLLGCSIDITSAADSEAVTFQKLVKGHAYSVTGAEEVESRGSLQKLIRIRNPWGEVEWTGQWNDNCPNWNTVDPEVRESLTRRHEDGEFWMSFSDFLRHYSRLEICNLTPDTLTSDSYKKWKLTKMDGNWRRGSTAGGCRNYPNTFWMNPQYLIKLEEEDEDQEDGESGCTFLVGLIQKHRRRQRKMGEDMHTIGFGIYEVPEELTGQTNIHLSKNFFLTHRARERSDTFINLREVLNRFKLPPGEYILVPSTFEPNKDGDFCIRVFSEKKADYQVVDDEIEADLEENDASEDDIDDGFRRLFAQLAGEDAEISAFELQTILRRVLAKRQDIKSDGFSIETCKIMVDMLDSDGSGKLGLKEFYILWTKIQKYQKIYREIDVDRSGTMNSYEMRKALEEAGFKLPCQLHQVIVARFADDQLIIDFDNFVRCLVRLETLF
# m-calpain (derived from porcine kidney), sequence (P04574 whole entry, further chain): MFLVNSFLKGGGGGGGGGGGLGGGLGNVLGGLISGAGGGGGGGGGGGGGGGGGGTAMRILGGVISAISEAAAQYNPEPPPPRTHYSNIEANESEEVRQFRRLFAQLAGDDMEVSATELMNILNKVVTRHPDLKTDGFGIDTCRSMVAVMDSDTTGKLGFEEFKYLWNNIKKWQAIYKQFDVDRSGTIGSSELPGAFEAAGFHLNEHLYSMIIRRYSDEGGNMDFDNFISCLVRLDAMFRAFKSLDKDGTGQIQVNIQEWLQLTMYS
# Protocol: More specifically, 200 μL of a reaction solution containing 0.5 mg/mL casein, 50 mM Tris-HCl buffer (pH 7.4), 20 mM dithiothreitol and 1.0 nmol μ-calpain (derived from human red blood cells, Cosmo Bio Co., Ltd.) or m-calpain (derived from porcine kidney, Cosmo Bio Co., Ltd.) was added to individual 2.5 μL portions of DMSO solution containing a varying concentration of a test sample in a 96-well plate. Then, 50 μL of 20 mM aqueous calcium chloride was added thereto, and reaction was performed at 30° C. for 60 minutes. 100 μL of the reaction solution was transferred to another 96-well plate, and purified water (50 μL) and 50% aqueous solution (100 μL) of Protein Assay Dye Reagent (available from Bio-Rad Laboratories, Inc.; catalogue No. 500-600) were added thereto. […] The absorbance of a reaction mixture prepared in the same manner as mentioned above, except that a DMSO solution containing no sample was used as a control value; and the absorbance of a reaction mixture prepared in the same manner as mentioned above, except that a 1 mM aqueous EDTA solution (50 μL) was used in place of 20 mM aqueous calcium chloride, was used as a blank value. […] Inhibition rate (%){1−(measured value−blank test value)/(control value−blank test value)}×100
# [4] = biological target: T1, μ-calpain (derived from human red blood cells) (Homo sapiens, UniProt P07384); assay: Measurement of inhibitory activity against μ-calpain; format: biochemical; conditions: casein substrate, 30° C., 60 minutes; read-out: enzyme inhibitory activities (μM) μ-calpain
# T1 construct: derived from human red blood cells; purchased Cosmo Bio Co., Ltd; host or cells: human red blood cells (tissue-purified)
# T1 sequence (P07384 1-714): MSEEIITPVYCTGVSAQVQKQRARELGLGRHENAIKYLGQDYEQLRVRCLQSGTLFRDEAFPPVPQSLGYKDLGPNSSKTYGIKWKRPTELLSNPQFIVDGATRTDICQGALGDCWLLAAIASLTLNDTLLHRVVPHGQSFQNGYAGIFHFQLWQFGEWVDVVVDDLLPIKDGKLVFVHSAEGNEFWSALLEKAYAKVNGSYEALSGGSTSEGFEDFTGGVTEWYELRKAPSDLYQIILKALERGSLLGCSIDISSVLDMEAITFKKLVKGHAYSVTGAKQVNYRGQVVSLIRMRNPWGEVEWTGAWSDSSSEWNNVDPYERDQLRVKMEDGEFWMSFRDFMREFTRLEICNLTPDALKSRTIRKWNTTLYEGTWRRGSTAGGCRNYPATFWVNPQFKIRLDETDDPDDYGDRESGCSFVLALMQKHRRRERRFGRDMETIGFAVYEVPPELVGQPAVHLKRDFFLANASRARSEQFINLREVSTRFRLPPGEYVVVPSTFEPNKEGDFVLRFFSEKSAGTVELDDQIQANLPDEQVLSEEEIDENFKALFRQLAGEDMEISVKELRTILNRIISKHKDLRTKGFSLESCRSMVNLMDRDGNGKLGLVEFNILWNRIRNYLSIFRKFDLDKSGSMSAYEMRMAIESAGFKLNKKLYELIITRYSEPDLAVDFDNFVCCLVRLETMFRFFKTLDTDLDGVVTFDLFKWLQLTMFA
# T1 sequence (P04632 1-268 partner): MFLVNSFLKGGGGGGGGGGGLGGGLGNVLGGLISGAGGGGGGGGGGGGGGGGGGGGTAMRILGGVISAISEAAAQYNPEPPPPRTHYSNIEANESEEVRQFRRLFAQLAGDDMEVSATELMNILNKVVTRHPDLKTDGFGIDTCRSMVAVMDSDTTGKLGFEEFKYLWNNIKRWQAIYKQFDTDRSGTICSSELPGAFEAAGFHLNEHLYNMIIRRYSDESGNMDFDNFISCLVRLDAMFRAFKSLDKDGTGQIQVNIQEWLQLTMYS
# Protocol: The inhibitory activity against μ-calpain and m-calpain was assayed according to a published method (Anal. Biochem. 1993, vol. 208, p. 387-392). More specifically, 200 μL of a reaction solution containing 0.5 mg/mL casein, 50 mM Tris-HCl buffer (pH 7.4), 20 mM dithiothreitol and 1.0 nmol μ-calpain (derived from human red blood cells, Cosmo Bio Co., Ltd.) or m-calpain (derived from porcine kidney, Cosmo Bio Co., Ltd.) was added to individual 2.5 μL portions of DMSO solution containing a varying concentration of a test sample in a 96-well plate. Then, 50 μL of 20 mM aqueous calcium chloride was added thereto, and reaction was performed at 30° C. for 60 minutes. 100 μL of the reaction solution was transferred to another 96-well plate, and purified water (50 μL) and 50% aqueous solution (100 μL) of Protein Assay Dye Reagent (available from Bio-Rad Laboratories, Inc.; catalogue No. 500-600) were added thereto. The reaction mixture was allowed to stand at room temperature for 15 minutes, and its absorbance was measured at 595 nm. The absorbance of a reaction mixture prepared in the same manner as mentioned above, except that a DMSO solution containing no sample was used as a control value; and the absorbance of a reaction mixture prepared in the same manner as mentioned above, except that a 1 mM aqueous EDTA solution (50 μL) was used in place of 20 mM aqueous calcium chloride, was used as a blank value. […] Inhibition rate (%){1−(measured value−blank test value)/(control value−blank test value)}×100
# The concentrations (IC50) are shown in Table 1 as enzyme (calpain) inhibitory activities (μM).
Compound,LIS1 protein expression [1],neuronal migration [1],neurite elongation and cell migration (cytotoxicity) ([2]; 50 μM),neurite elongation and cell migration (cytotoxicity) ([2]; 100 μM),melting point [°C],IC50 [3] [µM],IC50 [4] [µM]
"CCCCC(C=O)NC(=O)C(CC(C)C)NC(=O)C(CC(C)C)NC(C)=O (stereo not drawn) [ALLN, N-Acetyl-Leu-Leu-Nle-CHO] (Ac-Leu-Leu-[Nle]-aldehyde; configuration not given here)",increased LIS1 protein expression,restored neuronal migration,"the cells were roundly aggregated, neurite elongation was hardly observed, the cells remained accumulated in the center, and migration was hardly observed",,,,
"CCOC(=O)[C@H]1O[C@@H]1C(=O)N[C@@H](CC(C)C)C(=O)NCCC(C)C [E64d, reference compound]",,,,"the cells were aggregated in the center, many cells were incapable of neurite elongation, little migration was observed compared with the control",,,
"COCCOCCOCCOCCOC(=O)N[C@@H](CC(C)C)C(=O)N[C@@H](Cc1ccccc1)C(=O)C(=O)NC1CC1 [compound 19, ((1S)-1-((((1S)-1-Benzyl-2,3-dioxo-3-(cyclopropylamino)propyl)amino)carbonyl)-3-methylbutyl)carbamic acid 11-methoxy-3,6,9-trioxaundecanyl ester]",,,,,97.5 to 98.5,0.17,0.22
"COCCOCCOCCOCCOCCOC(=O)N[C@@H](CC(C)C)C(=O)N[C@@H](Cc1ccccc1)C(=O)C(=O)NC1CC1 [compound 20, ((1S)-1-((((1S)-1-Benzyl-2,3-dioxo-3-(cyclopropylamino)propyl)amino)carbonyl)-3-methylbutyl)carbamic acid 14-methoxy-3,6,9,12-tetraoxatetradecanyl ester]",,,,,98.5 to 99.9,0.19,0.42
